Measured values: ChEMBL document CHEMBL5291721, “A preclinical secondary pharmacology resource illuminates target-adverse drug reaction associations of marketed drugs” (Nat Commun, 2023)

What was measured:
[1] = biological target: Voltage-dependent N-type calcium channel subunit alpha-1B (Rattus norvegicus, UniProt Q02294); type: functional
[2] = biological target: T1, Alpha-1A adrenergic receptor (Homo sapiens, UniProt P35348)
T1 sequence (P35348 whole entry): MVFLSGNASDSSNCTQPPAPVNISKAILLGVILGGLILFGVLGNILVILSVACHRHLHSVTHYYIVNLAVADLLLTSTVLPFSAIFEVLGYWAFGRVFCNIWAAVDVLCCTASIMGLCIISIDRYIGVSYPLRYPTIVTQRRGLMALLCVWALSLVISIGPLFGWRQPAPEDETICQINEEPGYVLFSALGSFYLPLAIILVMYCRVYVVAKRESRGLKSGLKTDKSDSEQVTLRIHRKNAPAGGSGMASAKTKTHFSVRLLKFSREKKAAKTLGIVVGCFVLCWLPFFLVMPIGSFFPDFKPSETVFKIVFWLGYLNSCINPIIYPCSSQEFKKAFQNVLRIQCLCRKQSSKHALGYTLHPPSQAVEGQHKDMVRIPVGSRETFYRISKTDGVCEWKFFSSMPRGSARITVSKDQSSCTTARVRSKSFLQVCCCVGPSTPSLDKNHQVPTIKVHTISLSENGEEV

[3] = biological target: T2, Corticotropin-releasing factor receptor 2 (Homo sapiens, UniProt Q13324)
T2 sequence (Q13324 whole entry): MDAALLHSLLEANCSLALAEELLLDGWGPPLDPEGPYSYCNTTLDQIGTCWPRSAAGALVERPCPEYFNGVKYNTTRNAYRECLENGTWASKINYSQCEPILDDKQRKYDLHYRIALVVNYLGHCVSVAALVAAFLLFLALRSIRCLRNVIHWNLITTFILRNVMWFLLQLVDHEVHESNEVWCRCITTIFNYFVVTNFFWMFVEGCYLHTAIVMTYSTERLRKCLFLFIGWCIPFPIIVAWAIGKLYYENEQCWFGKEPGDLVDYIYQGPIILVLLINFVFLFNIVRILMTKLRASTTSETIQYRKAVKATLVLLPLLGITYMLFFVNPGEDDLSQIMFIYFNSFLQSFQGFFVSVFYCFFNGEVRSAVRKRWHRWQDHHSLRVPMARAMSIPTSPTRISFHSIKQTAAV

[4] = biological target: T3, Endothelin receptor type B (Homo sapiens, UniProt P24530)
T3 sequence (P24530 whole entry): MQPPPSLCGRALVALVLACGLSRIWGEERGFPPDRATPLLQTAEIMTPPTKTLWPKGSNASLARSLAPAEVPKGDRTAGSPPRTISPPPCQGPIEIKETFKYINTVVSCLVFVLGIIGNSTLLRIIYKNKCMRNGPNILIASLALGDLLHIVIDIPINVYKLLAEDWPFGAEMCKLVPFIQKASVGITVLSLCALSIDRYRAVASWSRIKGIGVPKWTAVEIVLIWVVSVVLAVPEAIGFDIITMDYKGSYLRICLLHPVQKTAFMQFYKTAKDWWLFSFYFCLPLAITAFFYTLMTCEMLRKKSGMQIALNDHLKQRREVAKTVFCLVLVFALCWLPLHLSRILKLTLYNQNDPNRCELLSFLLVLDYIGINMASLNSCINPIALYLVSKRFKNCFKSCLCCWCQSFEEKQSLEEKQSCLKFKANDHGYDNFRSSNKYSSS

[5] = biological target: Histamine H2 receptor (Homo sapiens, UniProt P25021)
Sequence of Histamine H2 receptor (P25021 whole entry): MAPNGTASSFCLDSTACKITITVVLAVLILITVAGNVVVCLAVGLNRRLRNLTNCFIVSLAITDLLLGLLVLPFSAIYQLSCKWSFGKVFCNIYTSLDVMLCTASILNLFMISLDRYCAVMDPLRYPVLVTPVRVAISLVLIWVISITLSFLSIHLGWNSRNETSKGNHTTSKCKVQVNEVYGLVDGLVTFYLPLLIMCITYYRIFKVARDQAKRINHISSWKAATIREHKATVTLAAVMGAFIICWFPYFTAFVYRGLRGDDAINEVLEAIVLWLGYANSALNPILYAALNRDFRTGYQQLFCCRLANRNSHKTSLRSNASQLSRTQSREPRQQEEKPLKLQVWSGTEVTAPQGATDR

[6] = biological target: Gamma-aminobutyric acid receptor subunit alpha-1/alpha-2/beta-2/gamma-2 (Homo sapiens, UniProt P14867+P18507+P47869+P47870); type: functional, cell-based
Sequence of Gamma-aminobutyric acid receptor subunit alpha-1/alpha-2/beta-2/gamma-2 (P14867 whole entry): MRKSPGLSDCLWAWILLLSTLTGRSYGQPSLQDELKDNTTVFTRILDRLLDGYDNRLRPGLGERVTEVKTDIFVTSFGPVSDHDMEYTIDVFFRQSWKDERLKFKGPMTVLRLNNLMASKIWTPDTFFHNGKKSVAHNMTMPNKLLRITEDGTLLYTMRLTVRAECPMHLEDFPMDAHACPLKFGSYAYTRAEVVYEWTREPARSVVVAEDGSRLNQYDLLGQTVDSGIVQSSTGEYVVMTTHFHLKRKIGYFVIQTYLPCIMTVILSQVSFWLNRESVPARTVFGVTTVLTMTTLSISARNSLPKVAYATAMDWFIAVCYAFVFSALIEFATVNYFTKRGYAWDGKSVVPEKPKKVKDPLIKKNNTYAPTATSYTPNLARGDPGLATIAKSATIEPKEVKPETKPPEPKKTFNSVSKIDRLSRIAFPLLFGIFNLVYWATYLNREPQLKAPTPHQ
Sequence of Gamma-aminobutyric acid receptor subunit alpha-1/alpha-2/beta-2/gamma-2 (P47870 whole entry): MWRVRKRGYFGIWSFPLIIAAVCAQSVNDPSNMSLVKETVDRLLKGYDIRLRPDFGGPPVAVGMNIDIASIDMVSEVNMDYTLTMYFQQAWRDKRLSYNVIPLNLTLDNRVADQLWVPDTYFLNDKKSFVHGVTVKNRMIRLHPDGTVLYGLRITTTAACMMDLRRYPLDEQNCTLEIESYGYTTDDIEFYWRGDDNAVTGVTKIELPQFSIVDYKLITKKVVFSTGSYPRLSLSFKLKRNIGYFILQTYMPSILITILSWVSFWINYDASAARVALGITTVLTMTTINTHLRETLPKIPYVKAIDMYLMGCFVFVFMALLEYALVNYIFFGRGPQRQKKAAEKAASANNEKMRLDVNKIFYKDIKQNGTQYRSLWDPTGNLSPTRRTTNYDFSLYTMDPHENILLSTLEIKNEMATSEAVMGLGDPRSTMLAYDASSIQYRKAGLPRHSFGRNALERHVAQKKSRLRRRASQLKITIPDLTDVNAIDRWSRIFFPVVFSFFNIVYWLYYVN
Sequence of Gamma-aminobutyric acid receptor subunit alpha-1/alpha-2/beta-2/gamma-2 (P18507 whole entry): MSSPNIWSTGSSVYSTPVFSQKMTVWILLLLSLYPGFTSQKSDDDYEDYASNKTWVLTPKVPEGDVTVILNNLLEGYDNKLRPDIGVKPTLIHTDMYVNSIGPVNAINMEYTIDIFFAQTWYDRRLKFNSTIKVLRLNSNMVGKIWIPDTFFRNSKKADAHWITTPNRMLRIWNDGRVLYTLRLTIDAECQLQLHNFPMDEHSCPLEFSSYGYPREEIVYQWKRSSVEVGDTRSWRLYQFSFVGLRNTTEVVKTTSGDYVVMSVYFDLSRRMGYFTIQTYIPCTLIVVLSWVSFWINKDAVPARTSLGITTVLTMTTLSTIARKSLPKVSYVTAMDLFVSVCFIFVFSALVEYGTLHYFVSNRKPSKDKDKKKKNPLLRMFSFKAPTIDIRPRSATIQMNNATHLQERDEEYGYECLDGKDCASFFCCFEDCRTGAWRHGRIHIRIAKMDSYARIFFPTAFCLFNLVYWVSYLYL
Sequence of Gamma-aminobutyric acid receptor subunit alpha-1/alpha-2/beta-2/gamma-2 (P47869 whole entry): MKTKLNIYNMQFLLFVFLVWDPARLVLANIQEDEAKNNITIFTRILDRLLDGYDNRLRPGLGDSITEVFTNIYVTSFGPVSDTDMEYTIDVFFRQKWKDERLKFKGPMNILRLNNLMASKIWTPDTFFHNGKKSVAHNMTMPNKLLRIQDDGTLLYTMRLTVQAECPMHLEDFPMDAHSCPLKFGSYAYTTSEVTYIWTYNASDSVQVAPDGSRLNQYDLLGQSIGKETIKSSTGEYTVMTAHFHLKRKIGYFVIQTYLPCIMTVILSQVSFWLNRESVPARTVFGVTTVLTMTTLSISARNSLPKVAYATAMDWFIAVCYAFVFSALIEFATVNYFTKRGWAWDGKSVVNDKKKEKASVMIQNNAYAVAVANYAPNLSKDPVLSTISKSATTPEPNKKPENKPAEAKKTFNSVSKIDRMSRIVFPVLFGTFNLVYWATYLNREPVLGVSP

[7] = biological target: Beta-3 adrenergic receptor (Homo sapiens, UniProt P13945)
Sequence of Beta-3 adrenergic receptor (P13945 whole entry): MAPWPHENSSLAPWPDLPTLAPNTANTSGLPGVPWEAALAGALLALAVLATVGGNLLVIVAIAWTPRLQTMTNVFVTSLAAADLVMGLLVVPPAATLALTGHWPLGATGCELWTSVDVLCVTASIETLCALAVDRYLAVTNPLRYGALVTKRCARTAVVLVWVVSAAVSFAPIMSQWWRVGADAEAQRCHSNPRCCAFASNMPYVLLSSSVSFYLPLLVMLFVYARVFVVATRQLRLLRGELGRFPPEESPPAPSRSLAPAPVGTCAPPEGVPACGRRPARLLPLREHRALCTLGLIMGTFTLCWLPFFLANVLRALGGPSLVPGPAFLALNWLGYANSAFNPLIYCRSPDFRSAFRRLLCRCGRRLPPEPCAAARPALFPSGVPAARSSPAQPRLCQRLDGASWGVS

[8] = biological target: T4, Muscarinic acetylcholine receptor M1 (Homo sapiens, UniProt P11229); type: functional
T4 sequence (P11229 whole entry): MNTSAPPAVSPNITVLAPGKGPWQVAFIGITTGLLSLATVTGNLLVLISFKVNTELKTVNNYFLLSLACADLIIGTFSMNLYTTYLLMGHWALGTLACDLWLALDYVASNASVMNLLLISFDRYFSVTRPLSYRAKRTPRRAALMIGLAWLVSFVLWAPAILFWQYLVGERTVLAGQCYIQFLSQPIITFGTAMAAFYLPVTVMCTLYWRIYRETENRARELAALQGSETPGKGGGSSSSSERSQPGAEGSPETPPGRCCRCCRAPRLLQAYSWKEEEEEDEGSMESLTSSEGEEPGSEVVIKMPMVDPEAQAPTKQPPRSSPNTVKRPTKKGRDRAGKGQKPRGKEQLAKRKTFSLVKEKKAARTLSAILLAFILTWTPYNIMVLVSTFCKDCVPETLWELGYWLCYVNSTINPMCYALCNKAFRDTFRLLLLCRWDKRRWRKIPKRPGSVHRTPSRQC

[9] = biological target: 5-hydroxytryptamine receptor 2A (Homo sapiens, UniProt P28223); type: functional, cell-based
Also: assay procedure not described here.

Sequence of Voltage-dependent N-type calcium channel subunit alpha-1B (Q02294 whole entry): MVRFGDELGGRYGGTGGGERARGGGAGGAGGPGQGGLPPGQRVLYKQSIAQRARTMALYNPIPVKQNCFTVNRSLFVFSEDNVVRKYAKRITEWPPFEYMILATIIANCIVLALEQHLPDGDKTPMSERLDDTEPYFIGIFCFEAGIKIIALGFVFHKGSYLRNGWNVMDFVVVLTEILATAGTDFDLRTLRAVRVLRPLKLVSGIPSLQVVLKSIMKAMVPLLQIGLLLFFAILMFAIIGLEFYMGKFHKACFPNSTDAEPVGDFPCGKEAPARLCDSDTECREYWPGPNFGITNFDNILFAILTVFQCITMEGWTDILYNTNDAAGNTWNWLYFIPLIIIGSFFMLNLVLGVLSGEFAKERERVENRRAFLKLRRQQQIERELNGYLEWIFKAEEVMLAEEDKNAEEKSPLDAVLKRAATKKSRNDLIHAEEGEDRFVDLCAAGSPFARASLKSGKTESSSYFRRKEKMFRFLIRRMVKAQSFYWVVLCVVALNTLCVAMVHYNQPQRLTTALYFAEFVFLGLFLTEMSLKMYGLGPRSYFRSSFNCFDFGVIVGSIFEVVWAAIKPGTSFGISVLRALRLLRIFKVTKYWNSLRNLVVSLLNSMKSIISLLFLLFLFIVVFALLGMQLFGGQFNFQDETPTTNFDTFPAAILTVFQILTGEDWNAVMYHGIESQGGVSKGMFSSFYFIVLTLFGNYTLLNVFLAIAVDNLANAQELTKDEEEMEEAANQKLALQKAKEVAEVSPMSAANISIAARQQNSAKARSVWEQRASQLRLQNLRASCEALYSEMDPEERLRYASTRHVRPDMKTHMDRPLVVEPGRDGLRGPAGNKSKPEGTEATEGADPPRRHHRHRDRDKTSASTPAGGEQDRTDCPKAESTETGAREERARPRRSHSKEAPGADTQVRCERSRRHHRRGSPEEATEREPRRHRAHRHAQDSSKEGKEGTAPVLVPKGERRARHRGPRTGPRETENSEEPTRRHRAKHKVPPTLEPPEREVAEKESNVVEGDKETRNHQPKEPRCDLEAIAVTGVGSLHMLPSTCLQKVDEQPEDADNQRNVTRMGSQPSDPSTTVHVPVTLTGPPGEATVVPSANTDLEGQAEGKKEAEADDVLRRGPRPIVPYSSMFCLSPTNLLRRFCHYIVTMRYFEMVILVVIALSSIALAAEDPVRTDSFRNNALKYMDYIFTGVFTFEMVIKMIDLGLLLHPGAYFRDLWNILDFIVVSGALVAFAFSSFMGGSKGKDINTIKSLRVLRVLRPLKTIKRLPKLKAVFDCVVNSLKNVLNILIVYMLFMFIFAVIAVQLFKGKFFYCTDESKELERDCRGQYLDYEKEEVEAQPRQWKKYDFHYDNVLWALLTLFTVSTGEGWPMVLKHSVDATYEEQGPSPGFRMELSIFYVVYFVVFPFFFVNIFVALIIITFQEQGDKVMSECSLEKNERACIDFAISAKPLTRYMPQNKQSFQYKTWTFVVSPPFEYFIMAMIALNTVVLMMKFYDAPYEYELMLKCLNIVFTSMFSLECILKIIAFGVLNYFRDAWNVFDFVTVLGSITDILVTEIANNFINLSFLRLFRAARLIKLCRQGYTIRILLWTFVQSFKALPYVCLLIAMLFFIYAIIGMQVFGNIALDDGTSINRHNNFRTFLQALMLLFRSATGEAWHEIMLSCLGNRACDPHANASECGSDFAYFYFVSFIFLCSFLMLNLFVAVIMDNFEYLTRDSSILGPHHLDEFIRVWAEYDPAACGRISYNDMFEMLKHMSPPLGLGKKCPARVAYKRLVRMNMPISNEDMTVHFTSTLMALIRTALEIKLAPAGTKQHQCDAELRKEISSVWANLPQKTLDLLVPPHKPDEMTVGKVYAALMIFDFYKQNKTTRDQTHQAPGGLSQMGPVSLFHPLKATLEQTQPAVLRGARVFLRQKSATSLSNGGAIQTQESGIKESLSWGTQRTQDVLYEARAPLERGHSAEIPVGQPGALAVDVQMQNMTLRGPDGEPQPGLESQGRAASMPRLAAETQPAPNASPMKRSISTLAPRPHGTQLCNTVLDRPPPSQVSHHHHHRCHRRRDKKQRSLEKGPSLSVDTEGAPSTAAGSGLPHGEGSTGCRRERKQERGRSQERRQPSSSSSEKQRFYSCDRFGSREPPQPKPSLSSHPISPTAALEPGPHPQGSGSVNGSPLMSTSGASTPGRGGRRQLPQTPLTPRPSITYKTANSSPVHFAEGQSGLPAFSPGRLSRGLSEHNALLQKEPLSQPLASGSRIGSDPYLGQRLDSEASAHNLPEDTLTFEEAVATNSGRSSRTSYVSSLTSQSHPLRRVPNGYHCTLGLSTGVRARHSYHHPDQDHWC

## CCOc1nc2cccc(C(=O)O)c2n1Cc1ccc(-c2ccccc2-c2nnn[nH]2)cc1
[1]
  AC50: > 10 µM
[2]
  AC50: > 10 µM
[3]
  AC50: > 30 µM
[4]
  AC50: > 30 µM
[5]
  AC50: > 10 µM
[6]
  AC50: > 30 µM
[7]
  AC50: > 30 µM

## CCCc1nc2c(C)cc(-c3nc4ccccc4n3C)cc2n1Cc1ccc(-c2ccccc2C(=O)O)cc1
[1]
  AC50: > 10 µM
[2]
  AC50: > 10 µM
[3]
  AC50: > 30 µM
[4]
  AC50: > 30 µM
[5]
  AC50: > 10 µM
[8]
  AC50: > 30 µM
[6]
  AC50: > 30 µM
[7]
  AC50: > 30 µM

## CCOc1cc([C@@H](CS(C)(=O)=O)N2C(=O)c3cccc(NC(C)=O)c3C2=O)ccc1OC
[9]
  AC50: > 30 µM
[8]
  AC50: > 30 µM
[6]
  AC50: > 30 µM

## CC(=O)Nc1ccc(CC(=O)O)cc1 [ACTARIT]
[9]
  AC50: > 30 µM
[8]
  AC50: > 30 µM

## CC1(C)S[C@@H]2[C@H](NC(=O)C(C(=O)O)c3ccccc3)C(=O)N2[C@H]1C(=O)O (some centres undefined) [CARBENICILLIN]
[9]
  AC50: > 30 µM
[8]
  AC50: > 30 µM
[6]
  AC50: > 30 µM

## Cc1nnc(SCC2=C(C(=O)O)N3C(=O)[C@@H](NC(=O)Cn4cnnn4)[C@H]3SC2)s1 [CEFAZOLIN]
[9]
  AC50: > 300 µM
[8]
  AC50: > 300 µM
[6]
  AC50: > 2400 µM

## CC=CC1=C(C(=O)O)N2C(=O)[C@@H](NC(=O)[C@H](N)c3ccc(O)cc3)[C@H]2SC1 [CEFPROZIL]
[9]
  AC50: > 30 µM
[8]
  AC50: > 30 µM

## CC(C)(O/N=C(\C(=O)N[C@@H]1C(=O)N2C(C(=O)[O-])=C(C[n+]3ccccc3)CS[C@H]12)c1csc(N)n1)C(=O)O [CEFTAZIDIME]
[9]
  AC50: > 300 µM
[8]
  AC50: > 300 µM
[6]
  AC50: > 2400 µM

## CC(C)NC(=N)NC(=N)Nc1ccc(Cl)c(Cl)c1 [CHLORPROGUANIL]
[9]
  AC50: > 30 µM
[8]
  AC50: > 30 µM
[6]
  AC50: > 30 µM

## CCCNC(=O)NS(=O)(=O)c1ccc(Cl)cc1 [CHLORPROPAMIDE]
[1]
  AC50: > 10 µM
[2]
  AC50: 5.7 µM
[3]
  AC50: > 30 µM
[4]
  AC50: > 30 µM
[7]
  AC50: > 30 µM

## C[N+](C)(C)CCOP(=O)(O)OP(=O)([O-])OC[C@H]1O[C@@H](n2ccc(N)nc2=O)[C@H](O)[C@@H]1O [CITICOLINE]
[9]
  AC50: > 30 µM
[8]
  AC50: > 10 µM
[6]
  AC50: > 30 µM

## Clc1ccc(Cn2c(CN3CCCC3)nc3ccccc32)cc1 [CLEMIZOLE]
[9]
  AC50: > 30 µM
[8]
  AC50: > 30 µM
[6]
  AC50: > 30 µM

## CCC(=O)O[C@]1(C(=O)CCl)[C@@H](C)C[C@H]2[C@@H]3CCC4=CC(=O)C=C[C@]4(C)[C@@]3(F)[C@@H](O)C[C@@]21C [CLOBETASOL PROPIONATE]
[6]
  AC50: > 30 µM

## Cc1nc(Nc2ncc(C(=O)Nc3c(C)cccc3Cl)s2)cc(N2CCN(CCO)CC2)n1 [DASATINIB]
[1]
  AC50: > 10 µM
[2]
  AC50: > 10 µM
[4]
  AC50: > 10 µM
[5]
  AC50: > 10 µM
[8]
  AC50: > 30 µM

## CC(C)Cc1ccc([C@H](C)C(=O)O)cc1 [DEXIBUPROFEN]
[6]
  AC50: > 30 µM

## O=C(O)Cc1ccccc1Nc1c(Cl)cccc1Cl [DICLOFENAC]
[1]
  AC50: > 10 µM
[2]
  AC50: 5 µM
[3]
  AC50: > 30 µM
[4]
  AC50: > 30 µM
[5]
  AC50: > 10 µM
[7]
  AC50: > 30 µM

## CNC[C@H](O)c1ccc(O)c(O)c1 [EPINEPHRINE]
[6]
  AC50: > 30 µM

## O=C(O)Cc1ccccc1Oc1ccc(Cl)cc1Cl [FENCLOFENAC]
[1]
  AC50: > 10 µM
[2]
  AC50: > 10 µM
[3]
  AC50: > 30 µM
[4]
  AC50: > 30 µM
[5]
  AC50: > 10 µM
[8]
  AC50: > 10 µM
[7]
  AC50: > 30 µM

## Cc1onc(-c2c(F)cccc2Cl)c1C(=O)N[C@@H]1C(=O)N2[C@@H]1SC(C)(C)[C@@H]2C(=O)O [FLOXACILLIN]
[9]
  AC50: > 30 µM
[8]
  AC50: > 30 µM
[6]
  AC50: > 30 µM

## Cc1ccc(C)c(OCCCC(C)(C)C(=O)O)c1 [GEMFIBROZIL]
[1]
  AC50: > 10 µM
[2]
  AC50: 13.7 µM
[3]
  AC50: > 30 µM
[4]
  AC50: > 30 µM
[5]
  AC50: > 10 µM
[7]
  AC50: > 30 µM

## CCCCCCCN(CC)CCCC(O)c1ccc(NS(C)(=O)=O)cc1 (centres undefined) [IBUTILIDE]
[9]
  AC50: > 30 µM
[8]
  AC50: > 30 µM

## COc1cc(C(C)=O)ccc1OCCCN1CCC(c2noc3cc(F)ccc23)CC1 [ILOPERIDONE]
[8]
  AC50: 6.38 µM
[6]
  AC50: > 30 µM

## CC[C@H](C)C(=O)O[C@H]1C[C@@H](C)C=C2C=C[C@H](C)[C@H](CC[C@@H]3C[C@@H](O)CC(=O)O3)[C@H]21 [LOVASTATIN]
[1]
  AC50: > 10 µM
[2]
  AC50: > 10 µM
[3]
  AC50: > 30 µM
[4]
  AC50: > 30 µM
[5]
  AC50: > 10 µM
[7]
  AC50: 11.6 µM

## CC[C@@H](CO)NC(=O)[C@@H]1C=C2c3cccc4c3c(cn4C)C[C@H]2N(C)C1 [METHYSERGIDE]
[1]
  AC50: > 10 µM
[2]
  AC50: > 10 µM
[3]
  AC50: > 30 µM
[4]
  AC50: > 30 µM
[5]
  AC50: 2.44 µM
[7]
  AC50: > 30 µM

## CNC(=C[N+](=O)[O-])NCCSCc1csc(CN(C)C)n1 [NIZATIDINE]
[2]
  AC50: > 10 µM

## CN1Cc2c(N)cccc2C(c2ccccc2)C1 (centres undefined) [NOMIFENSINE]
[9]
  AC50: > 30 µM
[8]
  AC50: > 30 µM
[6]
  AC50: > 30 µM

## CC(CN1c2ccccc2Sc2ccccc21)N(C)C (centres undefined) [PROMETHAZINE]
[1]
  AC50: > 10 µM
[2]
  AC50: 0.0996 µM
[3]
  AC50: > 30 µM
[4]
  AC50: > 30 µM
[5]
  AC50: 0.0536 µM
[7]
  AC50: > 30 µM

## CCCc1cc(=O)[nH]c(=S)[nH]1 [PROPYLTHIOURACIL]
[2]
  AC50: > 10 µM

## Cn1cc(C(=O)[C@@H]2CCc3nc[nH]c3C2)c2ccccc21 [RAMOSETRON]
[9]
  AC50: > 30 µM
[8]
  AC50: > 30 µM

## CN(CCOc1ccc(CC2SC(=O)NC2=O)cc1)c1ccccn1 (centres undefined) [ROSIGLITAZONE]
[1]
  AC50: > 10 µM
[3]
  AC50: > 30 µM
[4]
  AC50: > 30 µM
[5]
  AC50: > 10 µM
[7]
  AC50: > 30 µM

## S=P(N1CC1)(N1CC1)N1CC1 [THIOTEPA]
[6]
  AC50: > 30 µM

## CC(C)[C@H](N)C(=O)OCCOCn1cnc2c(=O)[nH]c(N)nc21 [VALACYCLOVIR]
[1]
  AC50: > 10 µM
[2]
  AC50: > 10 µM
[3]
  AC50: > 30 µM
[4]
  AC50: > 30 µM
[5]
  AC50: > 10 µM
[7]
  AC50: > 30 µM

## COc1cc(C(=O)NS(=O)(=O)c2ccccc2C)ccc1Cc1cn(C)c2ccc(NC(=O)OC3CCCC3)cc12 [ZAFIRLUKAST]
[2]
  AC50: > 10 µM

## O=C1Cc2cc(CCN3CCN(c4nsc5ccccc45)CC3)c(Cl)cc2N1 [ZIPRASIDONE]
[1]
  AC50: > 10 µM
[2]
  AC50: 0.0275 µM
[3]
  AC50: > 30 µM
[4]
  AC50: > 30 µM
[5]
  AC50: 0.596 µM
[8]
  AC50: > 10 µM
[7]
  AC50: > 30 µM
